Measured values taken from US20100298141A1, “SUBSTITUTED PYRIDINE N-OXIDE HERBICIDES” (E. I. DU PONT DE NEMOURS AND COMPANY, priority 2007, published 2010).

Assays:
sugarcane = experiment: Test F pre-/postemergence test; format: in vivo, Saccharum officinarum; conditions: for Plant response rating, Sugarcane: preemergence, scale 0 to 100
Excerpt: Seeds of plant species selected from bermudagrass (Cynodon dactylon), Surinam grass (Brachiaria decumbens), large crabgrass (Digitaria sanguinalis), green foxtail (Setaria viridis), goosegrass (Eleusine indica), johnsongrass (Sorghum halepense), kochia (Kochia scoparia), pitted morningglory (Ipomoea lacunosa), purple nutsedge (Cyperus rotundus), common ragweed (Ambrosia elation), mustard (Brassica nigra), guineagrass (Panicum maximum), […] (Paspalum dilatatum), barnyardgrass (Echinochloa crus-galli), southern sandbur (Cenchrus echinatus), common sowthistle (Sonchus oleraceous), prickly […] spinosa), Italian ryegrass (Lolium multiflorum), common purslane (Portulaca oleracea), broadleaf signalgrass (Brachiaria platyphylla), common groundsel (Senecio vulgaris), common chickweed (Stellaria media), Virginia dayflower (Commelina virginica), annual bluegrass (Poa annua), naked crabgrass (Digitaria nuda), […] cochinchinensis), quackgrass (Elytrigia repens), Canada horseweed (Conyza canadensis), field bindweed (Convolvulus arvensis), […] (Bidens bipinnata), common mallow (Malva sylvestris), Russian thistle (Salsola kali), and sugarcane (Saccharum officinarum) were planted and treated preemergence with test chemicals formulated in a non-phytotoxic solvent mixture which included a surfactant. At a different time, sugarcane was treated with postemergence applications of some of the test chemicals formulated in the same manner. Plants were approximately 3- to 4-leaf stage for the postemergence treatments. Treated plants and controls were maintained in a greenhouse for 14 to 21 days, after which time all species were compared to controls and visually evaluated. […] A dash (-) response means no test result.

itchgrass = experiment: Test G preemergence test; format: in vivo, Rottboellia cochinchinensis; conditions: scale 0 to 100
cotton = experiment: Test G preemergence test; format: in vivo, Gossypium hirsutum; conditions: scale 0 to 100
spring wheat = experiment: Test D preemergence test; format: in vivo, Triticum aestivum; conditions: scale 0 to 100
In short: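 Seeds planted and treated preemergence with test chemicals formulated in a non-phytotoxic solvent mixture containing surfactant. A dash means no test result.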

Ricefield Bulrush = experiment: Test C flooded paddy test; format: in vivo; conditions: Flood
Excerpt: (§1) At time of treatment, test pots were flooded to 3 cm above the soil surface, treated by application of test compounds directly to the paddy water, and then maintained at that water depth for the duration of the test. Treated plants and controls were maintained in a greenhouse for 13 to 15 days, after which time all species were compared to controls and visually evaluated. […] A dash (-) response means no test result.

Redstem = experiment: Test C flooded paddy test; format: in vivo; conditions: Flood
Excerpt: as §1

fall panicum = experiment: Test G preemergence test; format: in vivo, Panicum dichotomiflorum; conditions: scale 0 to 100
yellow nutsedge = experiment: Test G preemergence test; format: in vivo, Cyperus esculentus; conditions: scale 0 to 100
blackgrass = experiment: Test D preemergence test; format: in vivo, Alopecurus myosuroides; conditions: scale 0 to 100
Excerpt: (§2) Seeds of plant species selected from annual bluegrass (Poa annua), blackgrass (Alopecurus myosuroides), downy bromegrass (Bromus tectorum), field violet (Viola arvensis), green foxtail (Setaria viridis), Italian ryegrass (Lolium multiflorum), littleseed canarygrass (Phalaris minor), spring wheat (Triticum aestivum), wild oat (Avena fatua), […]), winter barley (Hordeum vulgare), and winter wheat (Triticum aestivum) were planted and treated preemergence with test chemicals formulated in a non-phytotoxic solvent mixture which included a surfactant. […] A dash (-) response means no test result.

Italian ryegrass = experiment: Test D preemergence test; format: in vivo, Lolium multiflorum; conditions: scale 0 to 100
Excerpt: as §2

yellow foxtail = experiment: Test G preemergence test; format: in vivo, Pennisetum glaucum; conditions: scale 0 to 100
sorghum = experiment: Test G preemergence test; format: in vivo, Sorghum vulgare; conditions: scale 0 to 100
[1] = 31 g ai/ha, scale 0 to 100 (0 no effect, 100 complete control)
[2] = 62 g ai/ha, scale 0 to 100, 0 no effect, 100 complete control, 13 to 15 days
[3] = 125 g ai/ha, scale 0 to 100, 0 no effect, 100 complete control, 13 to 15 days
[4] = 250 g ai/ha, scale 0 to 100 (0 no effect, 100 complete control)

SMILES: Cn1nc(C(F)(F)F)c(C[S+]([O-])c2cccc[n+]2[O-])c1OCC(F)(F)F (racemic) [Compound 28]
- Plant response rating, Sugarcane (sugarcane; 125 g ai/ha): 17
- Plant response rating, Sugarcane (sugarcane; 500 g ai/ha): 68

SMILES: Cc1cc[n+]([O-])c([S+]([O-])Cc2c(C(F)(F)F)nn(C)c2OCC(F)(F)F)c1 (racemic) [Compound 30]
- Sugarcane plant response rating (sugarcane; 250 g ai/ha, postemergence, scale 0 to 100 (0 no effect, 100 complete control)): 33
- Plant response rating, Sugarcane (sugarcane; 250 g ai/ha): 12

SMILES: Cc1cc[n+]([O-])c([S+]([O-])Cc2c(C(F)(F)F)nn(C)c2OC(F)F)c1 (centres unmarked) [Compound 1]
- Plant response rating, Itchgrass (itchgrass; 31 g ai/ha): 20
- Plant response rating, Itchgrass (itchgrass; 62 g ai/ha): 35
- Plant response rating, Itchgrass (itchgrass; 125 g ai/ha): 40
- Plant response rating, Itchgrass (itchgrass; 250 g ai/ha): 60
- Plant response rating, Cotton (cotton; 31 g ai/ha): 0
- Plant response rating, Cotton (cotton; 62 g ai/ha): 10
- Plant response rating, Cotton (cotton; 125 g ai/ha): 15
- Plant response rating, Cotton (cotton; 250 g ai/ha): 20
- Plant response rating, Wheat, Spring (spring wheat; 31 g ai/ha): 0
- Plant response rating, Wheat, Spring (spring wheat; 62 g ai/ha): 0
- Plant response rating, Wheat, Spring (spring wheat; 125 g ai/ha): 30
- Plant response rating, Wheat, Spring (spring wheat; 250 g ai/ha): 45
- Plant response rating, Ricefield Bulrush (Ricefield Bulrush; [1]): 75
- Plant response rating, Ricefield Bulrush (Ricefield Bulrush; [2]): 75
- Plant response rating, Ricefield Bulrush (Ricefield Bulrush; [3]): 75
- Plant response rating, Ricefield Bulrush (Ricefield Bulrush; [4]): 85
- Plant response rating, Redstem (Redstem; [1]): 40
- Plant response rating, Redstem (Redstem; [2]): 60
- Plant response rating, Redstem (Redstem; [3]): 80
- Plant response rating, Redstem (Redstem; [4]): 85
- Plant response rating, Fall Panicum (fall panicum; 31 g ai/ha): 0
- Plant response rating, Fall Panicum (fall panicum; 62 g ai/ha): 10
- Plant response rating, Fall Panicum (fall panicum; 125 g ai/ha): 30
- Plant response rating, Fall Panicum (fall panicum; 250 g ai/ha): 100
- Plant response rating, Nutsedge, Yellow (yellow nutsedge; 31 g ai/ha): 0
- Plant response rating, Nutsedge, Yellow (yellow nutsedge; 62 g ai/ha): 35
- Plant response rating, Nutsedge, Yellow (yellow nutsedge; 125 g ai/ha): 75
- Plant response rating, Nutsedge, Yellow (yellow nutsedge; 250 g ai/ha): 40
- Plant response rating, Blackgrass (blackgrass; 31 g ai/ha): 5
- Plant response rating, Blackgrass (blackgrass; 62 g ai/ha): 60
- Plant response rating, Blackgrass (blackgrass; 125 g ai/ha): 70
- Plant response rating, Blackgrass (blackgrass; 250 g ai/ha): 100
- Plant response rating, Ryegrass, Italian (Italian ryegrass; 31 g ai/ha): 0
- Plant response rating, Ryegrass, Italian (Italian ryegrass; 62 g ai/ha): 20
- Plant response rating, Ryegrass, Italian (Italian ryegrass; 125 g ai/ha): 30
- Plant response rating, Ryegrass, Italian (Italian ryegrass; 250 g ai/ha): 95
- Plant response rating, Foxtail, Yellow (yellow foxtail; 31 g ai/ha): 20
- Plant response rating, Foxtail, Yellow (yellow foxtail; 62 g ai/ha): 100
- Plant response rating, Foxtail, Yellow (yellow foxtail; 125 g ai/ha): 100
- Plant response rating, Foxtail, Yellow (yellow foxtail; 250 g ai/ha): 100
- Plant response rating, Sorghum (sorghum; 31 g ai/ha): 0
- Plant response rating, Sorghum (sorghum; 62 g ai/ha): 0
- Plant response rating, Sorghum (sorghum; 125 g ai/ha): 40
- Plant response rating, Sorghum (sorghum; 250 g ai/ha): 50

SMILES: Cn1nc(C(F)(F)F)c(CS(=O)(=O)c2cccc[n+]2[O-])c1OC(F)F [Compound 4]
- Plant response rating, Itchgrass (itchgrass; 31 g ai/ha): 0
- Plant response rating, Itchgrass (itchgrass; 62 g ai/ha): 20
- Plant response rating, Itchgrass (itchgrass; 125 g ai/ha): 30
- Plant response rating, Itchgrass (itchgrass; 250 g ai/ha): 60
- Plant response rating, Cotton (cotton; 31 g ai/ha): 5
- Plant response rating, Cotton (cotton; 62 g ai/ha): 25
- Plant response rating, Cotton (cotton; 125 g ai/ha): 0
- Plant response rating, Cotton (cotton; 250 g ai/ha): 10
- Plant response rating, Wheat, Spring (spring wheat; 31 g ai/ha): 20
- Plant response rating, Wheat, Spring (spring wheat; 62 g ai/ha): 30
- Plant response rating, Wheat, Spring (spring wheat; 125 g ai/ha): 30
- Plant response rating, Wheat, Spring (spring wheat; 250 g ai/ha): 30
- Plant response rating, Ricefield Bulrush (Ricefield Bulrush; [1]): 0
- Plant response rating, Ricefield Bulrush (Ricefield Bulrush; [2]): 0
- Plant response rating, Ricefield Bulrush (Ricefield Bulrush; [3]): 60
- Plant response rating, Ricefield Bulrush (Ricefield Bulrush; [4]): 80
- Plant response rating, Redstem (Redstem; [1]): 40
- Plant response rating, Redstem (Redstem; [2]): 55
- Plant response rating, Redstem (Redstem; [3]): 85
- Plant response rating, Redstem (Redstem; [4]): 80
- Plant response rating, Fall Panicum (fall panicum; 31 g ai/ha): 20
- Plant response rating, Fall Panicum (fall panicum; 62 g ai/ha): 20
- Plant response rating, Fall Panicum (fall panicum; 125 g ai/ha): 60
- Plant response rating, Fall Panicum (fall panicum; 250 g ai/ha): 100
- Plant response rating, Nutsedge, Yellow (yellow nutsedge; 31 g ai/ha): 0
- Plant response rating, Nutsedge, Yellow (yellow nutsedge; 62 g ai/ha): 0
- Plant response rating, Nutsedge, Yellow (yellow nutsedge; 125 g ai/ha): 15
- Plant response rating, Nutsedge, Yellow (yellow nutsedge; 250 g ai/ha): 40
- Plant response rating, Blackgrass (blackgrass; 31 g ai/ha): 0
- Plant response rating, Blackgrass (blackgrass; 62 g ai/ha): 30
- Plant response rating, Blackgrass (blackgrass; 125 g ai/ha): 50
- Plant response rating, Blackgrass (blackgrass; 250 g ai/ha): 100
- Plant response rating, Ryegrass, Italian (Italian ryegrass; 31 g ai/ha): 20
- Plant response rating, Ryegrass, Italian (Italian ryegrass; 62 g ai/ha): 20
- Plant response rating, Ryegrass, Italian (Italian ryegrass; 125 g ai/ha): 20
- Plant response rating, Ryegrass, Italian (Italian ryegrass; 250 g ai/ha): 50
- Plant response rating, Foxtail, Yellow (yellow foxtail; 31 g ai/ha): 100
- Plant response rating, Foxtail, Yellow (yellow foxtail; 62 g ai/ha): 100
- Plant response rating, Foxtail, Yellow (yellow foxtail; 125 g ai/ha): 100
- Plant response rating, Foxtail, Yellow (yellow foxtail; 250 g ai/ha): 100
- Plant response rating, Sorghum (sorghum; 31 g ai/ha): 10
- Plant response rating, Sorghum (sorghum; 62 g ai/ha): 25
- Plant response rating, Sorghum (sorghum; 125 g ai/ha): 35
- Plant response rating, Sorghum (sorghum; 250 g ai/ha): 40

SMILES: Cn1nc(C(F)(F)F)c(C(Cl)S(=O)(=O)c2cccc[n+]2[O-])c1Cl (centres unmarked) [Compound 12]
- Plant response rating, Itchgrass (itchgrass; 31 g ai/ha): 0
- Plant response rating, Itchgrass (itchgrass; 62 g ai/ha): 0
- Plant response rating, Itchgrass (itchgrass; 125 g ai/ha): 0
- Plant response rating, Itchgrass (itchgrass; 250 g ai/ha): 0
- Plant response rating, Cotton (cotton; 31 g ai/ha): 0
- Plant response rating, Cotton (cotton; 62 g ai/ha): 0
- Plant response rating, Cotton (cotton; 125 g ai/ha): 0
- Plant response rating, Cotton (cotton; 250 g ai/ha): 0
- Plant response rating, Wheat, Spring (spring wheat; 31 g ai/ha): 0
- Plant response rating, Wheat, Spring (spring wheat; 62 g ai/ha): 0
- Plant response rating, Wheat, Spring (spring wheat; 125 g ai/ha): 0
- Plant response rating, Wheat, Spring (spring wheat; 250 g ai/ha): 0
- Plant response rating, Fall Panicum (fall panicum; 31 g ai/ha): 90
- Plant response rating, Fall Panicum (fall panicum; 62 g ai/ha): 100
- Plant response rating, Fall Panicum (fall panicum; 125 g ai/ha): 100
- Plant response rating, Fall Panicum (fall panicum; 250 g ai/ha): 100
- Plant response rating, Nutsedge, Yellow (yellow nutsedge; 31 g ai/ha): 0
- Plant response rating, Nutsedge, Yellow (yellow nutsedge; 62 g ai/ha): 0
- Plant response rating, Nutsedge, Yellow (yellow nutsedge; 125 g ai/ha): 0
- Plant response rating, Nutsedge, Yellow (yellow nutsedge; 250 g ai/ha): 20
- Plant response rating, Blackgrass (blackgrass; 31 g ai/ha): 0
- Plant response rating, Blackgrass (blackgrass; 62 g ai/ha): 0
- Plant response rating, Blackgrass (blackgrass; 125 g ai/ha): 100
- Plant response rating, Blackgrass (blackgrass; 250 g ai/ha): 100
- Plant response rating, Ryegrass, Italian (Italian ryegrass; 31 g ai/ha): 0
- Plant response rating, Ryegrass, Italian (Italian ryegrass; 62 g ai/ha): 0
- Plant response rating, Ryegrass, Italian (Italian ryegrass; 125 g ai/ha): 70
- Plant response rating, Ryegrass, Italian (Italian ryegrass; 250 g ai/ha): 100
- Plant response rating, Foxtail, Yellow (yellow foxtail; 31 g ai/ha): 95
- Plant response rating, Foxtail, Yellow (yellow foxtail; 62 g ai/ha): 100
- Plant response rating, Foxtail, Yellow (yellow foxtail; 125 g ai/ha): 100
- Plant response rating, Foxtail, Yellow (yellow foxtail; 250 g ai/ha): 100
- Plant response rating, Sorghum (sorghum; 31 g ai/ha): 0
- Plant response rating, Sorghum (sorghum; 62 g ai/ha): 0
- Plant response rating, Sorghum (sorghum; 125 g ai/ha): 60
- Plant response rating, Sorghum (sorghum; 250 g ai/ha): 100
